Laboratory results taken from US8278304B2, “Substituted 4-hydroxypyrimidine-5-carboxamides” (Merck Sharp & Dohme Corp., priority 2008, dated 2012).
Counter-ions that a name gives are not always drawn.

Target: T1, PHD2 (Homo sapiens, UniProt Q9GZT9)
T1 construct: FLAG-tagged full length PHD2 expressed in and purified from baculovirus-infected Sf9 cells; FLAG; made in house; host or cells: baculovirus-infected Sf9 cells
Assay: PHD2 / HIF-1α peptide hydroxylation assay, time resolved fluorescence (VHL complex detection)
Assay type: biochemical
Details: FLAG-tagged full length PHD2; 0.2 μM 2-oxoglutarate, 0.5 μM HIF-1α peptide; read-out: PHD2 Activity (PHD2 binding activity expressed as IC50 (nM))
Outline: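 Sf9-expressed FLAG-tagged full-length PHD2 (0.15 μg/ml) preincubated with compound 30 min at room temperature in Tris pH 7.4 buffer with 10 μM ferrous sulfate, 1 mM ascorbate and catalase. Reaction started with 0.2 μM 2-oxoglutarate and 0.5 μM biotinylated HIF-1α peptide (final); hydroxylation detected by time-resolved fluorescence via VHL complex binding.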

T1 sequence (Q9GZT9 whole entry): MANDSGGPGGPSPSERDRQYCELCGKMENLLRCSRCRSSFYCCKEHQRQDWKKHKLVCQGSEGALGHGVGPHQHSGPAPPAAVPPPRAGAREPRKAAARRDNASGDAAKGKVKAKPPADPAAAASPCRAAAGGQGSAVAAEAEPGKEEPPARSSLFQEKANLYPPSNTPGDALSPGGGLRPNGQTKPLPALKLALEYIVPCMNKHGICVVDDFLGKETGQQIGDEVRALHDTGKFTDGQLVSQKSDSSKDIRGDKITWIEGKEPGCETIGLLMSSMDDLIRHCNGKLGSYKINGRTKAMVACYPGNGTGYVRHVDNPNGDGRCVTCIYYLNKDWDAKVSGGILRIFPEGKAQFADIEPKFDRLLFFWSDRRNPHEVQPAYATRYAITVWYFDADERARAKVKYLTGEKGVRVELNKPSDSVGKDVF

Compound	IC50 [nM]
C[C@H](NC(=O)c1cnc(-c2cccnn2)nc1O)c1ccc2c(c1)OCCO2 [Example 140, N-[(1S)-1-(2,3-dihydro-1,4-benzodioxin-6-yl)ethyl]-4-hydroxy-2-(pyridazin-3-yl)pyrimidine-5-carboxamide]	≤ 10
CCCC(NC(=O)c1cnc(-n2cccn2)nc1O)c1ccc(-c2ccccc2)cc1 (stereo not drawn) [Example 165, N-[1-(biphenyl-4-yl)butyl]-4-hydroxy-2-(1H-pyrazol-1-yl)pyrimidine-5-carboxamide]	≤ 10
COc1ccc(C(NC(=O)c2cnc(-n3cccn3)nc2O)c2cnccn2)cc1 (stereo not drawn) [Example 166, 4-hydroxy-N-[(4-methoxyphenyl)(pyrazin-2-yl)methyl]-2-(1H-pyrazol-1-yl)pyrimidine-5-carboxamide]	≤ 10
COc1ccc(C(NC(=O)c2cnc(-n3cccn3)nc2O)c2ccc(OC)nc2)cc1 (stereo not drawn) [Example 167, 4-hydroxy-N-[(4-methoxyphenyl)(6-methoxypyridin-3-yl)methyl]-2-(1H-pyrazol-1-yl)pyrimidine-5-carboxamide trifluoroacetate (salt)]	≤ 10
COc1ccc(C(NC(=O)c2cnc(-n3cccn3)nc2O)c2ccc(SC)cc2)cc1 (stereo not drawn) [Example 168, 4-hydroxy-N-{(4-methoxyphenyl)[4-(methylsulfanyl)phenyl]methyl}-2-(1H-pyrazol-1-yl)pyrimidine-5-carboxamide]	≤ 10
COc1ccc(C(NC(=O)c2cnc(-c3cccnn3)nc2O)c2ccc(OC)cc2OC)c(OC)c1 [Example 174, N-[bis(2,4-dimethoxyphenyl)methyl]-4-hydroxy-2-(pyridazin-3-yl)pyrimidine-5-carboxamide]	≤ 10
COc1ccc(C(NC(=O)c2cnc(-c3cccnn3)nc2O)c2ccc(OC)cc2C)c(C)c1 [Example 175, N-[bis(4-methoxy-2-methylphenyl)methyl]-4-hydroxy-2-(pyridazin-3-yl)pyrimidine-5-carboxamide]	≤ 10
C[C@@H](NC(=O)[C@H](NC(=O)c1cnc(-n2cccn2)nc1O)c1ccccc1)c1ccccc1 [Example 180, 4-Hydroxy-N-((1R)-2-oxo-1-phenyl-2-{[(1R)-1-phenylethyl]amino}ethyl)-2-(1H-pyrazol-1-yl)pyrimidine-5-carboxamide]	10 to 100
CC(C)(NC(=O)c1cnc(-n2cccn2)nc1O)C(=O)O [Example 188, N-{[4-hydroxy-2-(1H-pyrazol-1-yl)pyrimidin-5-yl]carbonyl}-2-methylalanine]	100 to 1000
CC(C)(NC(=O)c1cnc(-n2cccn2)nc1O)C(=O)N1CCc2ccccc21 [Example 189, N-[1-(2,3-dihydro-1H-indol-1-yl)-2-methyl-1-oxopropan-2-yl]-4-hydroxy-2-(1H-pyrazol-1-yl)pyrimidine-5-carboxamide]	≤ 10

Second part, the molecule after the results:

IC50 [nM]	Compound
≤ 10	COc1ccc(C(NC(=O)c2cnc(-c3cccnn3)nc2O)c2ccc(Cl)nc2)cc1 (stereo not drawn) [Example 169, N-[(6-chloropyridin-3-yl)(4-methoxyphenyl)methyl]-4-hydroxy-2-(pyridazin-3-yl)pyrimidin-5-carboxamide]
≤ 10	COc1ccc(C(NC(=O)c2cnc(-c3cccnn3)nc2O)c2ccc(OC)nc2)cc1 (stereo not drawn) [Example 170, 4-hydroxy-N-[(4-methoxyphenyl)(6-methoxypyridin-3-yl)methyl]-2-(pyridazin-3-yl)pyrimidine-5-carboxamide]
≤ 10	COc1ccc(C(NC(=O)c2cnc(-c3cccnn3)nc2O)c2ccc3ccccc3n2)cc1 (stereo not drawn) [Example 171, 4-hydroxy-N-[(4-methoxyphenyl)(quinolin-2-yl)methyl]-2-(pyridazin-3-yl)pyrimidine-5-carboxamide]
≤ 10	COc1ccc(C(NC(=O)c2cnc(-c3cccnn3)nc2O)c2ccc3cc(OC)ccc3n2)cc1 (stereo not drawn) [Example 172, 4-hydroxy-N-[(4-methoxyphenyl)(6-methoxyquinolin-2-yl)methyl]-2-(pyridazin-3-yl)pyrimidine-5-carboxamide]
≤ 10	COc1ccc(C(NC(=O)c2cnc(-c3cccnn3)nc2O)c2nc3ccccc3s2)cc1 (stereo not drawn) [Example 173, N-[1,3-benzothiazol-2-yl(4-methoxyphenyl)methyl]-4-hydroxy-2-(pyridazin-3-yl)pyrimidine-5-carboxamide]
≤ 10	COc1ccc(C(NC(=O)c2cnc(-c3cccnn3)nc2O)c2ccc(F)cc2)c(OC)c1 (stereo not drawn) [Example 176, N-[(2,4-dimethoxyphenyl)(4-fluorophenyl)methyl]-4-hydroxy-2-(pyridazin-3-yl)pyrimidine-5-carboxamide]
≤ 10	COc1ccc(C(NC(=O)c2cnc(-c3cccnn3)nc2O)c2ccc(F)cc2)c(OC)n1 (stereo not drawn) [Example 177, N-[(2,6-dimethoxypyridin-3-yl)(4-fluorophenyl)methyl]-4-hydroxy-2-(pyridazin-3-yl)pyrimidine-5-carboxamide]
≤ 10	COc1ccc(C(NC(=O)c2cnc(-c3cccnn3)nc2O)c2ccc(SC)cc2)cc1 (stereo not drawn) [Example 178, 4-hydroxy-N-{(4-methoxyphenyl)[4-(methylsulfanyl)phenyl]methyl}-2-(pyridazin-3-yl)pyrimidine-5-carboxamide]
≤ 10	CC(O)c1ccc(C(NC(=O)c2cnc(-c3cccnn3)nc2O)c2ccc(Cl)cc2)cc1 (stereo not drawn) [Example 179, N-{(4-chlorophenyl)[4-(1-hydroxyethyl)phenyl]methyl}-4-hydroxy-2-(pyridazin-3-yl)pyrimidine-5-carboxamide]
≤ 10	COCc1ccc(C(NC(=O)c2cnc(-c3cccnn3)nc2O)c2ccc(COC)cc2)cc1 [Example 184, N-{bis[4-(methoxymethyl)phenyl]methyl}-4-hydroxy-2-pyridazin-3-ylpyrimidine-5-carboxamide]
≤ 10	C[C@H](NC(=O)c1cnc(-c2cccnn2)nc1O)c1ccc(-c2cccc3cnccc23)cc1 [Example 185, 4-hydroxy-N-[(1S)-1-(4-isoquinolin-5-ylphenyl)ethyl]-2-pyridazin-3-ylpyrimidine-5-carboxamide]
≤ 10	C[C@H](NC(=O)c1cnc(-c2cccnn2)nc1O)c1ccc(-c2ccc(F)nc2)cc1 [Example 186, N-{(1S)-1-[4-(6-fluoropyridin-3-yl)phenyl]ethyl}-4-hydroxy-2-pyridazin-3-ylpyrimidine-5-carboxamide trifluoroacetate (salt)]
≤ 10	C[C@H](NC(=O)c1cnc(-c2cccnn2)nc1O)c1ccc(-c2cccnc2)cc1 [Example 187, 4-hydroxy-2-pyridazin-3-yl-N-[(1S)-1-(4-pyridin-3-ylphenyl)ethyl]pyrimidine-5-carboxamide trifluoroacetate (salt)]
≤ 10	COc1ccc(C(NC(=O)c2cnc(-c3cccnn3)nc2O)c2ccc(OC)nc2)cn1 [Example 192, N-[bis(6-methoxypyridin-3-yl)methyl]-4-hydroxy-2-(pyridazin-3-yl)pyrimidine-5-carboxamide]
